We go through 5 compounds from patent US20070259965A1, “Acyclic 1,3-Diamine And Uses Therefor” (SmithKline Beecham Corporation, priority 2004, published 2007).

The target in the first experiment is T1, TRPV4 channel receptors (Bos taurus, UniProt A0A8F4X677).
T1 construct: obtained using this method in bovine articular chondrocytes; endogenous in cells; host or cells: bovine articular chondrocytes (primary)
T1 sequence (A0A8F4X677 1-871): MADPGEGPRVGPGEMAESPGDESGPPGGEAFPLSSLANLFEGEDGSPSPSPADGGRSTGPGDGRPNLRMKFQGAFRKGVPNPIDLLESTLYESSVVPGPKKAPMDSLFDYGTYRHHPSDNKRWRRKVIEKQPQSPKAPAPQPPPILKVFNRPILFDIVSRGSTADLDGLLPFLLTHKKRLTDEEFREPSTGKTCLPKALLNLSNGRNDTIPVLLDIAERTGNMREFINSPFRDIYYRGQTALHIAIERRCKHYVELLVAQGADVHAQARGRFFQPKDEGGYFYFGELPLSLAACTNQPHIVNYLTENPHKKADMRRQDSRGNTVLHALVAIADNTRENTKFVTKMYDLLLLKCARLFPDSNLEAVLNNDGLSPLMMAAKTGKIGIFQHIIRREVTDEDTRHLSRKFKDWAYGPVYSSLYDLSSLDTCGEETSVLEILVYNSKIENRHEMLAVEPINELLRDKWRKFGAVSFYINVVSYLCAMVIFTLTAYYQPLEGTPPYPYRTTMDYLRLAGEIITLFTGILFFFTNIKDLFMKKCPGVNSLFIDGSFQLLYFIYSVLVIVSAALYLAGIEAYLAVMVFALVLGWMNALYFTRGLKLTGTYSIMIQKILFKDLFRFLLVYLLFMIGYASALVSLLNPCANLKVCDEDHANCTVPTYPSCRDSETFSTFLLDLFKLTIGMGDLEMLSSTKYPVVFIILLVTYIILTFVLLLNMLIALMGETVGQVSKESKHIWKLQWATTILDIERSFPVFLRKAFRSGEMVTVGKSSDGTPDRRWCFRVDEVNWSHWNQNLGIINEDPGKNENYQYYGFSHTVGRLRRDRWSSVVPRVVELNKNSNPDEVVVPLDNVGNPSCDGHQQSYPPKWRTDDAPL
Kind of experiment: Ca2+ influx by Fura-2 fluorescence on a FlexStation in bovine articular chondrocytes. Type of experiment: cell-based. The settings on record: Fura-2, FlexStation. An excerpt:
Ca^2+influx mediated through TRPV4 channel receptors can be measured using articular chondrocytes from such species as, but not limited to, human, rat, canine, rabbit, monkey, and bovine, using standard techniques in the art such as, but not limited to, Fura-2 (Invitrogen/Molecular Probes, Eugene, Oreg.) fluorescence using a FlexStation (manufactured by Molecular Devices, Sunnyvale, Calif.). Table 1 lists biological data for several representative compounds obtained using this method in bovine articular chondrocytes.
On to `CC(C)C[C@H](NC(=O)c1cc2ccccc2s1)C(=O)NCCCN(C)S(=O)(=O)c1ccc(F)cc1Cl` [Example 6, N-{(1S)-1-[({3-[[(2-chloro-4-fluorophenyl)sulfonyl](methyl)amino]propyl}amino)carbonyl]-3-methylbutyl}-1-benzothiophene-2-carboxamide], for which the concentration for a half-maximal effect (EC50) (as a rule, the midpoint of the concentration-response curve) is 0.14 to 1 µM.

As for `CC(C)C[C@H](NC(=O)c1cc2ccccc2s1)C(=O)NCCCN(C)S(=O)(=O)c1sccc1C#N` [Example 13, N-{(1S)-1-[({3-[[(3-cyano-2-thienyl)sulfonyl](methyl)amino]propyl}amino)carbonyl]-3-methylbutyl}-1-benzothiophene-2-carboxamide], the EC50 fell in the range of 1.01 to 10 µM.

As to `Cc1c(C(=O)N[C@@H](CC(C)C)C(=O)NCCCN(C)S(=O)(=O)c2ccccc2C#N)oc2cccnc12` [Example 73, N-{(1S)-1-[({3-[[(2-cyanophenyl)sulfonyl](methyl)amino]propyl}amino)carbonyl]-3-methylbutyl}-3-methylfuro[3,2-b]pyridine-2-carboxamide], the EC50 lay in the range of 10 to 30 µM.

The next experiment deals with T2, TRPV4 channel receptor (Homo sapiens, UniProt Q9HBA0).
T2 construct: expressed in transfected cells; host or cells: HEK cells
T2 sequence (Q9HBA0 whole entry): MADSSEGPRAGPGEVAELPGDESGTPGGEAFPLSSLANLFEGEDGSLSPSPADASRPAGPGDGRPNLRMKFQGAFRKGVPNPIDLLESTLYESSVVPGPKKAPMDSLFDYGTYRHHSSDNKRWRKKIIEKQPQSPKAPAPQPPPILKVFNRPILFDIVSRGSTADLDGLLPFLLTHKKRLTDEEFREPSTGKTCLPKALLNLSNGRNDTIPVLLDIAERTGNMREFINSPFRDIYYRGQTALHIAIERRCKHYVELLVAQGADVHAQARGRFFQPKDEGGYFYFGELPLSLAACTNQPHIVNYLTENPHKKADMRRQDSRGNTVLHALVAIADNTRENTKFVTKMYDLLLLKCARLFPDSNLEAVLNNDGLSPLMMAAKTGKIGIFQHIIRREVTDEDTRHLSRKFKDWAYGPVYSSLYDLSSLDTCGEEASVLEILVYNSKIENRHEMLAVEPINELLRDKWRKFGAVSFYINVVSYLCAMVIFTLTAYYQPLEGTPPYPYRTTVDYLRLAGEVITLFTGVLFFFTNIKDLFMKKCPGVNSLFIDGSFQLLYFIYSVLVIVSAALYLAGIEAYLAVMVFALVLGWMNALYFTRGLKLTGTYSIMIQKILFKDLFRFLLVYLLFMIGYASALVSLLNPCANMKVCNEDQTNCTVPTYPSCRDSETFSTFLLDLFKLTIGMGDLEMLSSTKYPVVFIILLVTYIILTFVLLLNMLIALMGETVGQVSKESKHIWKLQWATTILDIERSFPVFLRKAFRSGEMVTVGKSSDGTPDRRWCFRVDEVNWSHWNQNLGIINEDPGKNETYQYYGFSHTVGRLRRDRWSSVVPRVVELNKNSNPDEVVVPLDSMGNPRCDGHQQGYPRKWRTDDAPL
Nature of the experiment: FLIPR assay using TRPV4 expressing HEK cells. Type of experiment: cell-based. The settings on record: FLIPR method; pEC50 = −log10(EC50 μM). The source says:
Other techniques used to measure TRPV4 channel receptor activation in chondrocytes include, but are not limited to: FLIPR assay, measuring a compound's capability to reduce the amount of ADAMTSs produced and/or released in response to a catabolic stimulus by a cell comprising a TRPV4 channel receptor; measuring a compound's capability to reduce the amount of MMPs produced and/or released in response to a catabolic stimulus by a cell comprising a TRPV4 channel receptor; measuring a compound's capability to effect the amount of nitric oxide (NO) produced in response to a catabolic stimulus by a cell comprising a TRPV4 channel receptor; and measuring a compound's capability to attenuate the inhibition of matrix synthesis in response to a catabolic stimulus by a cell comprising a TRPV4 channel receptor .
All exemplary compounds of the present invention were assessed using at least one of the biological assays presented above. Compounds presented in the Examples had pEC50 values between about 4.5 to about 7.0 as measured by Flex Station in using bovine articular cartilage and EC50 values of about 0.1 μM to about 30 μM as measured by FLIPR assay using TRPV4 expressing HEK cells.
`CC(C)C[C@H](NC(=O)c1cc2ccccc2s1)C(=O)NCCCN(C)S(=O)(=O)c1ccc(F)cc1Cl` [Example 6, N-{(1S)-1-[({3-[[(2-chloro-4-fluorophenyl)sulfonyl](methyl)amino]propyl}amino)carbonyl]-3-methylbutyl}-1-benzothiophene-2-carboxamide] gave an EC50 of 0.1 to 0.794 µM.

Regarding `CC(C)C[C@H](NC(=O)c1cc2ccccc2s1)C(=O)NCCCN(C)S(=O)(=O)c1c(Cl)cc(Cl)cc1Cl` [Example 17, N-((1S)-3-methyl-1-{[(3-{methyl[(2,4,6-trichlorophenyl)sulfonyl]amino}propyl)amino]carbonyl}butyl)-1-benzothiophene-2-carboxamide], the EC50 was 1 to 7.94 µM.

The compound `CC(C)C[C@H](NC(=O)c1cn2nc(Cl)ccc2n1)C(=O)NCCCN(C)S(=O)(=O)c1ccccc1C#N` [Example 71, 6-chloro-N-{(1S)-1-[({3-[[(2-cyanophenyl)sulfonyl](methyl)amino]propyl}amino)carbonyl]-3-methylbutyl}imidazo[1,2-b]pyridazine-2-carboxamide] gave an EC50 of 10 to 20 µM.
